Results on one compound are retold here after patent US10888549B2, “Pharmaceutical agents targeting cancer stem cells” (THE JOHNS HOPKINS UNIVERSITY, priority 2016, dated 2021).

The subject of one assay is COX2. Kind of assay: COX2 expression by western blotting. In kind it is cell-based, human. The procedure: (§1) Whole cell lysates were extracted using RIPA buffer (Thermo Scientific) supplemented with 10 μL/mL Halt™ Protease Inhibitor Cocktail Kit (Life Technologies) and 30 μL/mL Halt™ Phosphatase Inhibitor Cocktail Kit (Life Technologies). […] Secondary horseradish peroxidase (HRP)-conjugated antibodies were obtained from Cell Signaling Technology, and chemiluminescent detection of HRP-labeled antibodies was performed using Amersham ECL Prime Western Blotting Detection Reagent (GE Healthcare, Piscataway, USA). As loading control, β-actin was used.
In general terms: Immunoblotting shows a protein as a band on a membrane.

In a further assay the test system is YAP1. Kind of assay: YAP1 expression by western blotting. The format is cell-based, human. The protocol:
(§2) Whole cell lysates were extracted using RIPA buffer (Thermo Scientific) supplemented with 10 μL/mL Halt™ Protease Inhibitor Cocktail Kit (Life Technologies) and 30 μL/mL Halt™ Phosphatase Inhibitor Cocktail Kit (Life Technologies). The protein concentrations were determined using a Pierce™ BCA Protein Assay Kit (Life Technologies), and the protein were separated on NuPAGE® 4-12% Bis-Tris Gel (Life Technologies) according to the manufacturer's protocol. COX2 (D5H5), NANOG (D73G4), OCT4 (D7O5Z), CD133 (A3G6K), Snail (C15D3), ZEB1 (D80D3), Vimentin (D21H3), CDH2 (D4R1H), CDH1 (24E10), p-EGFR (D7A5), EGFR (D38B1), p-AKT (D9E), AKT (cat #, 9272), p-ERK (D13.14.4E), ERK (137F5), p-YAP1 (D9W2I), p-Src (cat #, 2101), Src (36D10), DNMT1 (D63A6), DNMT3A (D23G1), and DNMT3B (D7O7O) antibodies were obtained from Cell Signaling Technology (Danvers, Mass., USA), except for SOX2 (EPR3131; Abcam, Cambridge, USA), YAP1 (ab52771; Abcam), CD24 (cat #, AF5247-SP; R&D Systems, Minneapolis USA) and β-actin (A2228; Sigma-Aldrich). Secondary horseradish peroxidase (HRP)-conjugated antibodies were obtained from Cell Signaling Technology, and chemiluminescent detection of HRP-labeled antibodies was performed using Amersham ECL Prime Western Blotting Detection Reagent (GE Healthcare, Piscataway, USA). As loading control, β-actin was used.

The subject of assay [1] is AKT and extracellular signal-related kinase (ERK). Kind of assay: Western blotting of AKT and ERK activation. The format is cell-based, human. To be noted: basal-type cells; 1 μM erlotinib. The procedure: as §2
Another assay deals with urothelial CSCs. Nature of the assay: Sphere formation assay (CSC properties). In kind it is cell-based, human. To be noted: basal-type cells; 1 μM erlotinib for 72 hours. The protocol:
Sphere formation was induced by culturing cells (2×10^4/well) in DMEM/Ham's F12 50/50 Mix (Mediatech) supplemented with B-27 (Life Technologies), 20 ng/mL FGF-basic (Peprotech), 20 ng/mL EGF (Peprotech). Cell culture was performed in ultra-low attachment 6 well plates (Corning, Lowell, USA) for 10 days. The medium was replaced every other day. Sphere formation was evaluated using the inverted phase-contrast microscope, and single sphere with a diameter larger than 100 μm was counted using NIS-Elements Microscope Imaging Software. To redifferentiate spheres, spheres were plated in standard growth medium with 10% FBS in dishes supporting cell attachment, and incubated for 7 days. For self-renewal assay, primary spheres were collected by gentle centrifugation (5 min at 400×g), dissociated with Stempro Accutase Cell Dissociation Reagent (Life Technologies), and mechanically disrupted with a pipette. The cell suspension was sieved through 40 μm cell strainer cap filter to achieve a single-cell suspension, and then equal numbers of alive cells were plated in ultralow attachment plates to generate the second spheres. Again, spheres were counted on day 14 and digested to generate the third Spheres. All the experiments were performed in triplicate and repeated at least three times.

The test system of the next assay is SOX2. Nature of the assay: SOX2 expression by western blotting / flow cytometry. The format is cell-based, human. To be noted: basal-type cells. The protocol:
as §2
For extracellular staining, cells (1×10^6/100 μL stain buffer) were incubated with PE-Vio770-conjugated anti-human CD133 (293C3; Miltenyi Biotec, Auburn, USA) or PE-conjugated anti-human CD24 antibody (cat #, 560991; BD Biosciences) for 30 min at 4° C. in dark. PE-Vio770-conjugated Isotype (cat #, 130-098-563; Miltenyi Biotec) and PE-conjugated IgG2a, κ Isotype (cat #, 555574; BD Biosciences) were used as control for CD133 and CD24 staining, respectively. Staining for intracellular SOX2 was carried out using the BD Cytofix/Cytoperm Fixation/Permeabilization Kit (BD Biosciences) according to manufacturer's protocol. The cells were incubated with Alexa Fluor 647-conjugated anti-SOX2 antibody (cat #, 560302; BD Biosciences) for 40 min at 4° C. in dark. Alexa Fluor 647-conjugated anti-IgG2a, κ Isotype (cat #, 558053; BD Biosciences) was used as control. Data were acquired on a BD FACSCalibur flow cytometer (BD Biosciences) using BD CellQuest Pro software (BD Biosciences) and analyzed with FlowJo software v10.1 (Tree Star, Ashland, USA).

The next assay deals with EGFR-MAPK signaling. Kind of assay: Western blotting in xenograft tumors that acquired resistance to erlotinib. In kind it is in vivo, mice. To be noted: xenograft tumors with acquired resistance to EGFR inhibitor. The protocol: as §1
For celecoxib and/or VP treatment, celecoxib (5 mg/kg) was administered via intraperitoneal (i.p.) injection once a day (17), and VP (50 mg/kg) was administered via i.p. every other day (18). […] For GEM and CDDP (GC) treatment (i.p.), CDDP (6 mg/kg) was only applied after the first GEM (60 mg/kg) treatment on day 2, followed by three consecutive treatments of GEM on day 5, 8 and 11 (17). The next cycle was started on day 18, and the treatment was continued until tumor reached 2 cm in diameter. For erlotinib treatment, the mice were treated once a day, 6 days per week, by oral gavage with erlotinib (100 mg/kg) or control (PBS containing 0.5% methyl cellulose (Sigma-Aldrich) and 0.1% TWEEN 80) (20). Tumor size was measured at least every three days. […]

Take `C#Cc1cccc(Nc2ncnc3cc(OCCOC)c(OCCOC)cc23)c1` [erlotinib, Erlotinib]: the COX2 expression entry is reported as “increased” in the assay with COX2 (basal-type cells) and “did not affect” in the assay with COX2 (non-basal-type cells). The YAP1 expression result is recorded as “continuously decreased” in the assay with YAP1 (basal-type cells) and “did not affect” with YAP1 (non-basal-type cells). Also, the “activation of AKT and extracellular signal-related kinase (ERK)” value in assay [1] was “suppressed activation”. Further, the number of spheres entry in the assay on urothelial CSCs is “enriched number of spheres”. Also, the SOX2 expression entry in the assay on SOX2 is “decreased at 1 hour after treatment with erlotinib and then gradually increased”. For the same compound, the EGFR-MAPK signaling entry in the assay with EGFR-MAPK signaling is “remained suppressed”.
